{"source": "patent US20260284095A1", "about": "(Mayo Foundation for Medical Education and Research, priority 2023, published 2026)", "key": {"[1]": {"system": "STOM", "test": "ASO screen in H4 neuroglioma cells, STOM knock-down", "format": "cell-based", "details": "ASO 10 nM and 100 nM in the screen", "experimental": "(§1) Expression levels of DDR2, KANK2, and STOM were confirmed to have similar expression levels in the H4 neuroglioma cells (ATCC cat #HTB-148) and PSP brain homogenate (FIG. 27), and then ASOs described in Example 3 were screened for various characteristics in H4 cells. cDNA reverse transcription kits High-Capacity cDNA Reverse Transcription Kit (High-cap, Thermo Fisher Scientific, cat #4368814) and SuperScript™ IV VILO™ (VILO, Thermo Fisher Scientific, cat #11756050) were assessed. Both cDNA synthesis kits tested quantitatively reverse transcribed RNA into cDNA (FIG. 28). qPCR master mixes TaqMan™ Fast Advanced (Fast Advance, Thermo Fisher Scientific, cat #4444556) and TaqMan™ Universal PCR Master Mix (Universal, Thermo Fisher Scientific, cat #4364340) were assessed. Both qPCR master mixes quantitatively amplified cDNA and generated detectable signals (FIG. 29). Multiplexed qPCR assays were also performed. Duplexed gene quantification yielded similar results as singleton qPCR setups (FIG. 30). ASOs targeting PPIB were used as a positive control to confirm delivery of the ASOs to H4 cells and establish ASO screening parameters (FIG. 31).\n(§2) ASOs described in Example 3 were screened in the H4 neuroglioma cells. Different concentrations of ASOs (10 nM and 100 nM) were administered and knock-down efficiency (measured by fold change of mRNA compared to non-targeting ASO treated controls) and ASO toxicity (measured by LDH assay) were determined (FIGS. 32A-32F).\n(§3) Three ASO hits were selected for each target (DDR2: D4, D5, D9; KANK2: K4, K5, K10; STOM: S1, S4, S10). The knock-down efficiency (mRNA change) and ASO safety (cell toxicity as measured by LDH assay and viability as measured by XTT assay) were repeated/performed to validate the hits, as shown in FIG. 33A-33C.\n(§4) Knock-down was assessed by measuring polypeptide levels (FIGS. 35, 40, 41) using western Blot."}, "[2]": {"system": "GMR>Tau Drosophila (tau-mediated eye degeneration)", "test": "Dasatinib in Drosophila tau eye degeneration model", "format": "in vivo, Drosophila melanogaster", "details": "fly food with dasatinib 1 μM or 10 μM vs DMSO 0.5%; flies aged 5 days; blinded eye score"}, "[3]": {"system": "KANK2", "test": "ASO screen in H4 neuroglioma cells, KANK2 knock-down", "format": "cell-based", "details": "ASO 10 nM and 100 nM in the screen", "experimental": "as §1, §2, §3, §4"}, "[4]": {"system": "DDR2", "test": "ASO screen in H4 neuroglioma cells, DDR2 knock-down", "format": "cell-based", "details": "ASO 10 nM and 100 nM in the screen", "experimental": "as §1, §2, §3, §4"}, "[5]": {"system": "DDR2 mRNA", "test": "ASO D5 target engagement in iPSC-derived neurons", "format": "cell-based", "experimental": "(§5) Induced pluripotent stem cells (iPSCs) were examined as a model to assess target engagement of the ASO D5 (targeting DDR2). […] ASO D5 was administered to iPSCs-derived astrocytes and neurons separately following the schematic depicted in FIGS. 38-39."}, "[6]": {"system": "DDR2 mRNA", "test": "ASO D5 target engagement in iPSC-derived astrocytes", "format": "cell-based", "experimental": "as §5"}}, "data": [{"molecule": "S1: ASO targeting STOM, GGACTACGAATTCACAAGGC, 2'-MOE wings, phosphorothioate bonds (all phosphorothioate, sugars by position and methylation of C not given here; 2'-MOE wings)", "values": [{"measurement": "knock-down efficiency of STOM (fold change of mRNA compared to non-targeting ASO; polypeptide by western blot)", "setting": "[1]", "value": "hits"}]}, {"molecule": "Cc1nc(Nc2ncc(C(=O)Nc3c(C)cccc3Cl)s2)cc(N2CCN(CCO)CC2)n1", "note": "[dasatinib]", "values": [{"measurement": "tau-mediated eye degeneration", "setting": "[2]", "value": "dosage-dependent reduction"}]}, {"molecule": "K5: ASO targeting KANK2, CCCTCAGACACCCACAATTA, 2'-MOE wings, phosphorothioate bonds (all phosphorothioate, sugars by position and methylation of C not given here; 2'-MOE wings)", "values": [{"measurement": "knock-down efficiency of KANK2 (fold change of mRNA compared to non-targeting ASO; polypeptide by western blot)", "setting": "[3]", "value": "hits"}]}, {"molecule": "D5: ASO targeting DDR2, CACTCTTGCAGCAGACATTC, 2'-MOE wings, phosphorothioate bonds (all phosphorothioate, sugars by position and methylation of C not given here; 2'-MOE wings)", "values": [{"measurement": "knock-down efficiency of DDR2 (fold change of mRNA compared to non-targeting ASO; polypeptide by western blot)", "setting": "[4]", "value": "hits"}, {"measurement": "DDR2 mRNA", "setting": "[5]", "value": "reduced DDR2 mRNA"}, {"measurement": "DDR2 mRNA", "setting": "[6]", "value": "reduced DDR2 mRNA"}]}, {"molecule": "S10: ASO targeting STOM, ACACGCTCCACCTTTATTCC, 2'-MOE wings, phosphorothioate bonds (all phosphorothioate, sugars by position and methylation of C not given here; 2'-MOE wings)", "values": [{"measurement": "knock-down efficiency of STOM (fold change of mRNA compared to non-targeting ASO; polypeptide by western blot)", "setting": "[1]", "value": "hits"}]}, {"molecule": "D9: ASO targeting DDR2, CTGCTCATTCCAAAGTCAGC, 2'-MOE wings, phosphorothioate bonds (all phosphorothioate, sugars by position and methylation of C not given here; 2'-MOE wings)", "values": [{"measurement": "knock-down efficiency of DDR2 (fold change of mRNA compared to non-targeting ASO; polypeptide by western blot)", "setting": "[4]", "value": "hits"}]}, {"molecule": "K10: ASO targeting KANK2, CGTCCTGTCTTGCTTTGTCT, 2'-MOE wings, phosphorothioate bonds (all phosphorothioate, sugars by position and methylation of C not given here; 2'-MOE wings)", "values": [{"measurement": "knock-down efficiency of KANK2 (fold change of mRNA compared to non-targeting ASO; polypeptide by western blot)", "setting": "[3]", "value": "hits"}]}, {"molecule": "K4: ASO targeting KANK2, GCAAGCCAGTCTACATCAAG, 2'-MOE wings, phosphorothioate bonds (all phosphorothioate, sugars by position and methylation of C not given here; 2'-MOE wings)", "values": [{"measurement": "knock-down efficiency of KANK2 (fold change of mRNA compared to non-targeting ASO; polypeptide by western blot)", "setting": "[3]", "value": "hits"}]}, {"molecule": "S4: ASO targeting STOM, GCAATGGTGGTCAGTGTCTG, 2'-MOE wings, phosphorothioate bonds (all phosphorothioate, sugars by position and methylation of C not given here; 2'-MOE wings)", "values": [{"measurement": "knock-down efficiency of STOM (fold change of mRNA compared to non-targeting ASO; polypeptide by western blot)", "setting": "[1]", "value": "hits"}]}, {"molecule": "D4: ASO targeting DDR2, ACAGAGTCAGGACAAATGGC, 2'-MOE wings, phosphorothioate bonds (all phosphorothioate, sugars by position and methylation of C not given here; 2'-MOE wings)", "values": [{"measurement": "knock-down efficiency of DDR2 (fold change of mRNA compared to non-targeting ASO; polypeptide by western blot)", "setting": "[4]", "value": "hits"}]}]}
